For experiment [1], the system named is HeLa cells. Nature of the experiment: quantification of apoptotic morphology (pyknosis/karyorrhexis). It counts as cell-based, human. As to conditions: single-agent treatment, 48 h (1 40 μM; CHIR-124 500 nM). As for the experimental part: With this in mind, and considering the strong Chk1 activation in response to 1, HeLa cervical cancer cells, which are […][44], were exposed to a combination of 1 plus the Chk1 inhibitor CHIR-124[45] and the impact of co-treatment upon cell viability determined. A non-cytotoxic dose of 500 nM CHIR-124 was used and results were compared to single-agent treatment. […] Minimal enhancement of the anti-proliferative effect of 2 by CHIR-124 was observed (Fig. S15b), in agreement with 2 operating via a Chk1-independent mechanism.
Figure 5 Concurrent treatment of [Ru(dppz)2(PIP)]^2+ plus the Chk1 inhibitor CHIR-124 potentiates synergistic apoptosis in cancer cells. (a) Viability of HeLa (cervical cancer) or hSAEC1-KT (normal epithelial) cells after incubation with 1 in the absence or presence of Chk1 inhibitor CHIR-124 (500 nM) for 48 h constant exposure. (b) Morphological evidence for apoptosis (pyknosis/karyorrhexis, arrows) in HeLa cells treated with 40 μM 1 plus CHIR-124 for 48 h. Scale bars = 20 μm. (c) Quantification of apoptotic cells for experimental conditions as shown in (b). Equivalent results for 2 (40 μM, 48 h) included. Data mean of two independent experiments +/− SD. […] (f) Quantification of γH2AX foci from cells treated as in (e). […] Minimum of 150 cells counted per experiment. […]

Experiment [2] deals with primary human foreskin fibroblasts (HFF). Nature of the experiment: MTT proliferation assay, HFF. It counts as cell-based. The note with it: 24 h proliferation assay. How it is done:
(§1) (LC3 = Microtubule-associated protein light chain 3) (Fig. 2b, bottom).
(§2) Cells were seeded in 96 well plates at 20,000 cells/well, allowed to proliferate for 24 h before treatment as described in the main text. 0.5 mg ml^−1 MTT (thiazolyl blue tetrazolium bromide) dissolved in serum-free media was added for 60 minutes and the formazan product eluted using acidified isopropanol. The absorbance at 540 nm was quantified by plate reader (reference wavelength 650 nm). The metabolic activity of the cell population was determined as a percentage of a negative (solvent) control.

A further experiment concerns MCF7 breast cancer cells. Nature of the experiment: MTT proliferation assay, MCF7. It counts as cell-based, human. As to conditions: 24 h proliferation assay. How it is done:
as §1, §2

In experiment [3] the test system is HeLa cervical cancer cells. Nature of the experiment: MTT proliferation assay, HeLa. Type of experiment: cell-based, human. The note with it: 24 h proliferation assay. As for the experimental part: as §1, §2
Background: Tetrazolium assays rely on reduction of a dye to a coloured formazan, in cell work by metabolically active cells.

The test system of experiment [4] is HeLa cells. Briefly: cell-cycle analysis by PI flow cytometry. Type of experiment: cell-based, human. The note with it: cisplatin 10 μM, 24 h (Fig. 4c). How it is done: Figure 4 [Ru(dppz)2(PIP)]^2+ induces Chk1 checkpoint kinase activation and G1-S cell-cycle arrest. […] See SI for densitometry. (c) Cell-cycle distributions of HeLa cells incubated with DMSO (0.2%), 1 or 2 at the stated concentrations and time. DNA content was quantified using propidium iodide (PI) and analysed by flow cytometry. […] Data mean of three independent experiments +/− SD. […] They are copied as bare numbers, left to right. / The gate numbers in panel c are very small, so 3, 5, 6, 8 and 9 cannot be told apart with certainty. All the values below are best readings. / DMSO: 0.86, 57.4, 22.5, 16.8 uncertain / 1 (40 μM, 3 h): 0.46, 72.7, 13.5, 8.77 uncertain / 1 (40 μM, 8 h): 1.69, 73.2, 15.3, 3.6 uncertain / 1 (40 μM, 24 h): 1.2, 72.9, 15.8, 6.47 uncertain. […] 32.4 is partly overlapped by the peak line.
Cells were washed with PBS and detached using Trypsin. After centrifugation at 1000 rpm for 5 min, cells were fixed in cold 70% ethanol for 30 mins, centrifuged and re-suspended in PBS. Samples were stained using 10 μg/ml propidium iodide (PI) and 200 μg/ml RNAase A for 30 mins before FACS analysis using a Biosciences LSRII Flow Cytometer. A minimum of 10,000 cells were counted for each sample and data were processed using FloJo software. […]

As for `O=c1[nH]c2ccc(Cl)cc2c(N[C@@H]2CN3CCC2CC3)c1-c1nc2ccccc2[nH]1` [CHIR-124, reference compound], the “morphological evidence of apoptosis (pyknosis/karyorrhexis)” value with HeLa cells [1] is listed as less than 5%.
Turning to `O=C1c2c(O)ccc(O)c2C(=O)c2c(NCCNCCO)ccc(NCCNCCO)c21` [MX, mitoxantrone], the IC50 in experiment [2] was 4.2 µM; in experiment [2] (Homo sapiens, Fibroblast, 24 h), less than 5 µM; in the experiment with MCF7 breast cancer cells, 3.6 µM; with MCF7 breast cancer cells (Homo sapiens, MCF7, 24 h), less than 5 µM; in experiment [3], 3 µM; in experiment [3] (Homo sapiens, HeLa, 24 h), less than 5 µM.
In the case of `N.N.[Cl][Pt][Cl]` [Cisplatin, cis-diamminedichloroplatinum(II)], the IC50 in experiment [2] was greater than 100 µM; with MCF7 breast cancer cells it was 11 µM; in experiment [3], 9 µM. Moreover, in the experiment with HeLa cells [4], the “cells with sub-G1 DNA content” value is listed as ~ 30%.

One may read the IC50 as the concentration needed to halve the response being measured. The low end stands for higher potency, the high end for lower potency.

(Values after article PMC4997316, “A ruthenium polypyridyl intercalator stalls DNA replication forks, radiosensitizes human cancer cells and is enhanced by Chk1 inhibition” (Scientific Reports, 2016).)
